The source of these data is patent US20250268894A1, “MACROCYCLE COMPOUNDS FOR THE TREATMENT OF CANCER” (Hoffmann-La Roche Inc., priority 2022, published 2025).

In general, IC50 refers to the concentration that inhibits the measured activity by half.

Where only a bound is given, the exact number is not on record here.

The subject of one data set is human hepatocytes. Put plainly: Human hepatocyte stability assay. The class given is in vitro ADME. Conditions: 1 μM compound, human hepatocyte suspension 1×10^6 cells/mL. The method, then:
The hepatocyte stability assay measures the rate of disappearance of a compound from incubations with cryopreserved suspension hepatocytes from human. Positive controls, including Midazolam, Raloxifene and Dextromethorphan, are included in every experiment. Incubations consist of 1 μM tested compound and suspension of human hepatocytes (1×10^6 cells/mL) in supplemented Williams' E Medium with 10% FBS and 0.5% Penicillin-streptomycin. The hepatocyte suspension was incubated with intermittent shaking 900 rpm at 37° C., in a 5% CO2 incubator. The reaction was stopped by adding methanol containing internal standard (2 μM Tolbutamide) at 2, 10, 20, 40, 60 and 120 minutes after compound addition, depletion of the parent compound was monitored by LC-MS/MS analysis.

Data set [1] has as its system NCI-H358 cells (KRAS G12C). The data set is described as follows: Cell viability assay (Cell Counting Kit-8), KRAS G12C. The class given is cell-based. Conditions: Homo sapiens, NCI-H358, 72 hrs. The gist of the method:
(§1)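 Cells seeded overnight at 5,000/well (NCI-H358) or 2,000/well (AGS, SW620), then exposed to compound for 72 hrs at 0.5% DMSO final. CCK-8 read as OD450 minus OD650 after 2 hrs; IC50 from 4-parameter sigmoidal fit.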
(In general: Tetrazolium assays rely on reduction of a dye to a coloured formazan, in cell work by metabolically active cells.)

The test system of the next data set is SW620 cells (KRAS G12V). Put plainly: Cell viability assay (Cell Counting Kit-8), KRAS G12V. It counts as cell-based. The following applies: Homo sapiens, SW-620, SW620, 72 hrs. The gist of the method:
as §1

A further data set has as its target KRAS G12C-BRAF complex (Homo sapiens (Human), UniProt P01116+P62937, G12C). Put plainly: KRAS-BRAF with CYPA (500 nM) interaction assay (TR-FRET), G12C. It counts as biochemical. The method, then: Kras-BRAF with CYPA (500 nM) Interaction Assay In this example, TR-FRET was also used to measure the compound or compound-CYPA dependent disruption of the KRAS G12C-BRAF complex. This protocol was also used to measure disruption of KRAS G12D or KRAS G12V binding to BRAF by a compound of the invention, respectively. […] Compound was present in plate wells as a 16-point 3-fold dilution series starting at a final concentration of 10 μM and incubated for 3 hours. […] TR-FRET signal was read on a […] microplate reader (Ex320 nm, Em 665/615 nm). Compounds that facilitate disruption of the KRAS-BRAF complex were identified as those eliciting a decrease in the TR-FRET ratio relative to DMSO control wells.

Data set [2] relates to Miapaca-2 KRAS G12C + V8A cells. Put plainly: Stable KRAS mutant cell line viability assay (CellTiter-Glo), G12C + V8A. The class given is cell-based. The following applies: Homo sapiens, MIA PaCa-2, 72 h, Miapaca-2 mutant cells, 3 d. From the text:
(§2) The aim of the study was to determine the potency and efficacy of compounds for cell proliferation using CellTiter-Glo® (CTG) Luminescent Cell Viability Assay (Promega Corp., Madison, WI). We cloned […] KRAS^G12C variant sequences with secondary mutations (V8A, V9Y, S17E, T58I, A59T, S65W, R68S, D69P, M72I, D92R, H95N, Y96D, Q99F, Q99W, Y96H, and F156L) into the Miapaca-2. Totally 14 stable Miapaca-2 mutant cell lines were established through lentivirus infection. For the cell viability assay, cells were dosed with compounds in a 9-point dose-response using a 4 fold dilution series at a top dose of 10 μM. KRAS mutant cells were maintained in DMEM+10% FBS+2.5% HI Horse serum+1% PS+1 μg/mL Puromycin and seeded into 96-well plates at 800-1,500 cells per well 24 h before compound addition and then incubated with compound for 3 d before assaying viability (CellTiter-Glo, Promega). Assays were performed in biological duplicates. Nonlinear regression curves were fitted using Xfit. IC50 (absolute IC50) is the dose at which the estimated viability is 50% relative to untreated wells.
A general note: Cellular ATP, detected with luciferase, serves as a proxy for viable cell number.

The subject of data set [3] is Miapaca-2 KRAS G12C + V9Y cells. Put plainly: Stable KRAS mutant cell line viability assay (CellTiter-Glo), G12C + V9Y. It counts as cell-based. Conditions: Homo sapiens, MIA PaCa-2, 72 h, Miapaca-2 mutant cells, 3 d.
From the text: as §2

For data set [4], the system named is Miapaca-2 KRAS G12C + S65W cells. Put plainly: Stable KRAS mutant cell line viability assay (CellTiter-Glo), G12C + S65W. The following applies: Homo sapiens, MIA PaCa-2, 72 h, Miapaca-2 mutant cells, 3 d. It counts as cell-based.
From the text: as §2

Data set [5] concerns Miapaca-2 KRAS G12C + M72I cells. Put plainly: Stable KRAS mutant cell line viability assay (CellTiter-Glo), G12C + M72I. The following applies: Homo sapiens, MIA PaCa-2, 72 h, Miapaca-2 mutant cells, 3 d. The class given is cell-based.
From the text: as §2

Data set [6] deals with Miapaca-2 KRAS G12C + Y96D cells. The data set is described as follows: Stable KRAS mutant cell line viability assay (CellTiter-Glo), G12C + Y96D. The class given is cell-based. Conditions: Homo sapiens, MIA PaCa-2, 72 h, Miapaca-2 mutant cells, 3 d.
From the text: as §2

Data set [7] has as its system Miapaca-2 KRAS G12C + Q99W cells. Put plainly: Stable KRAS mutant cell line viability assay (CellTiter-Glo), G12C + Q99W. It counts as cell-based. Conditions: Homo sapiens, MIA PaCa-2, 72 h, Miapaca-2 mutant cells, 3 d.
From the text: as §2

In data set [8] the test system is Miapaca-2 KRAS G12C + F156L cells. The data set is described as follows: Stable KRAS mutant cell line viability assay (CellTiter-Glo), G12C + F156L. It counts as cell-based. The following applies: Homo sapiens, MIA PaCa-2, 72 h, Miapaca-2 mutant cells, 3 d.
From the text: as §2

Chain of KRAS G12C-BRAF complex (P01116-2 other isoform, or with tags, fused parts or gaps G12C): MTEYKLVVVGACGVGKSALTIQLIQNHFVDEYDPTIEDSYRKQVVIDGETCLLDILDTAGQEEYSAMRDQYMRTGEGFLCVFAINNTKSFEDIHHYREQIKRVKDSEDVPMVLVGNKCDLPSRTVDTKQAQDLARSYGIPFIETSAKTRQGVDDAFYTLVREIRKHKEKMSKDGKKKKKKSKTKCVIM
Chain of KRAS G12C-BRAF complex (P62937 whole entry): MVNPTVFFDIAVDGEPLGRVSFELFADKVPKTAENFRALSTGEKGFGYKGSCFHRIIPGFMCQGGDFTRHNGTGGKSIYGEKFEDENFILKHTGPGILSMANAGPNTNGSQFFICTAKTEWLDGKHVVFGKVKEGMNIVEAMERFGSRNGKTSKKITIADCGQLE

With `CO[C@@H](C)c1ncc(N2CCN(CC(F)(F)F)CC2)cc1-c1c2c3cc(ccc3n1CC(F)(F)F)-c1csc(n1)C[C@H](NC(=O)[C@H](C(C)C)N(C)C(=O)N1CCOCC1)C(=O)N1CCC[C@H](N1)C(=O)OCC(C)(C)C2` (atropisomer, axis not shown; (M)) [Example 6], the “CL_hep (Human)” value with human hepatocytes was below 2.4 mL/min/kg. The IC50 in [1] was found to be 5 nM; in the data set with SW620 cells (KRAS G12V), 2 nM; against KRAS G12C-BRAF complex it was 23 nM; in data set [2], 2 nM; in [3], 2 nM; in data set [4] it was 6 nM. For the same compound, the half-maximal inhibitory concentration (IC50) in data set [5] worked out at 3 nM; in data set [6] it was 7 nM; in [7], 7 nM; in data set [8], 8 nM.
